Reference: patent publication US10278942B2 (PELOTON THERAPEUTICS, INC., priority 2015, dated 2019)
Read-outs that look alike come from different tables or passages of the source.

Tests used:
786-O-Hif-Luc cells = experiment: Luciferase Assay (HIF responsive elements reporter)
Procedure: A pool of infected cells were then selected against 2 μg/mL of puromycin (P8833, Sigma) for 10 days followed by limited dilution to select single clones. […] Each concentration was tested in triplicate. After about 24 hours, luciferase activity was determined using ONE-Glo Luciferase Assay Reagent (E6110, Promega) following the manufacturer's recommended procedure. EC50 were calculated using Dotmatics software.

[1] = biological target: T1, HIF-2α HIS TAG-PASB Domain (Homo sapiens, UniProt Q99814); experiment: HIF-2α Scintillation Proximity Assay (SPA); format: binding
T1 construct: 100 nM HIF-2α HIS TAG-PASB Domain
Outline: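 IC50 values rest on percent inhibition, where the sample signal is scaled between high and low controls. Wells contain about 100 μL: compound dispensed as 2 μL of DMSO solution, 88 μL protein-probe mix and 10 μL of beads.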

[2] = read-out: Mean Luciferase EC50 (nM), 786-O-Hif-Luc cells
[3] = read-out: Scintillation Proximity Assay IC50

T1 sequence (Q99814 240-350 limits assumed): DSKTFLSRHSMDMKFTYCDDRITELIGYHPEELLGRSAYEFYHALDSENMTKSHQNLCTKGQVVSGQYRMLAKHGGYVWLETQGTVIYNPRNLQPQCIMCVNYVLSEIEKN

Row | SMILES | EC50 (786-O-Hif-Luc cells; [2]) [nM] | IC50 [1, 3] [nM] | EC50 (786-O-Hif-Luc cells; read-out: Mean Luciferase EC50 (nM)) [nM] | IC50 ([1]; Scintillation Proximity Assay IC50 (nM)) [nM]
1 | CS(=O)(=O)c1ccc(OC2CCC2)c2c1[C@H](O)C(F)(F)[C@@H]2F [Compound 753] | 250 to 1000 | < 50 |  | 
2 | CS(=O)(=O)c1ccc(OCC2CC2)c2c1[C@H](O)C(F)(F)C2 [Compound 779] | > 1000 | > 1000 |  | 
3 | N#Cc1c(Oc2cc(F)cc(F)c2)ccc2c1[C@@H](O)CS2(=O)=O [Compound 414] | 250 to 1000 | 50 to 249 |  | 
4 | N#Cc1c(Oc2cc(F)cc(F)c2)ccc2c1C(O)C(F)(F)S2(=O)=O (stereo not drawn) [Compound 443] | 250 to 1000 | < 50 |  | 
5 | OC1c2c(C(F)(F)F)ccc(OCC(F)F)c2CC1(F)F (stereo not drawn) [Compound 686] | 50 to 249 | 50 to 249 |  | 
6 | O=S(=O)(c1ccc(OC2CCC2)c2c1C(O)C(F)(F)C2)C(F)(F)F (stereo not drawn) [Compound 602] | < 50 | < 50 |  | 
7 | CS(=O)(=O)c1ccc(Oc2cccc(C#N)c2)c2c1[C@H](O)C(F)(F)C2 [Compound 162] | 50 to 249 | 50 to 249 |  | 
8 | OC1c2c(C(F)F)ccc(OCC(F)F)c2CC1(F)F (stereo not drawn) [Compound 586] | > 1000 | 50 to 249 |  | 
9 | O=S(=O)(c1ccc(-c2ccccc2)c2c1[C@H](O)C(F)(F)C2)C(F)(F)F [Compound 487, (S)-2,2-difluoro-4-phenyl-7-((trifluoromethyl)sulfonyl)-2,3-dihydro-1H-inden-1-ol] | > 1000 | 250 to 1000 |  | 
10 | O=C1CCc2c(Oc3cc(F)cc(Cl)c3)ccc(S(=O)(=O)C(F)F)c21 [Compound 18] | > 1000 | 50 to 249 |  | 
11 | O=S(=O)(c1ccc(Oc2cc(F)cc(Cl)c2)c(Br)c1/C=N/O)C(F)(F)F [Compound 107] | 250 to 1000 | 50 to 249 |  | 
12 | CS(=O)(=O)c1ccc(Oc2cc(F)cc(C#N)c2)c2c1[C@H](O)C[C@@H]2F [Compound 295] | 250 to 1000 | 50 to 249 |  | 
13 | O=S(=O)(c1ccc(OC2CCCCC2)c2c1C(O)CC2)C(F)(F)F (stereo not drawn) [Compound 616] | 250 to 1000 | 50 to 249 |  | 
14 | CC1(C)C[C@@H](O)C[C@@H](c2ccc(S(=O)(=O)C(F)(F)F)c3c2CC(F)(F)[C@H]3O)C1 [Compound 550] | 250 to 1000 | < 50 |  | 
15 | CS(=O)(=O)c1ccc(OCC2CC2(F)F)c2c1[C@H](O)C(F)(F)[C@@H]2F (stereo partly drawn) [Compound 756] | 250 to 1000 | < 50 |  | 
16 | O=S(=O)(c1ccc(C2=CC(O)CCC2)c2c1[C@H](O)C(F)(F)C2)C(F)(F)F (stereo partly drawn) [Compound 481, (1S)-2,2-difluoro-4-(3-hydroxycyclohex-1-en-1-yl)-7-((trifluoromethyl)sulfonyl)-2,3-dihydro-1H-inden-1-ol] | > 1000 | 250 to 1000 |  | 
17 | COC(C)COc1ccc(S(=O)(=O)C(F)(F)F)c2c1CC(F)(F)C2O (stereo not drawn) [Compound 626] | 50 to 249 | < 50 |  | 
18 | O=S(=O)(c1ccc(Cc2ccccc2)c2c1C(O)C(F)(F)C2)C(F)(F)F (stereo not drawn) [Compound 511] | > 1000 | 250 to 1000 |  | 
19 | O=S1(=O)c2ccc(Oc3cc(F)cc(Cl)c3)c(Br)c2[C@H](O)C1(F)F [Compound 405] |  |  | 50 to 249 | 50 to 249
20 | N#Cc1cc(F)cc(Oc2ccc3c(c2F)C(O)C(F)(F)S3(=O)=O)c1 (stereo not drawn) [Compound 434] | 250 to 1000 | 250 to 1000 |  | 
21 | O=S(=O)(c1ccc([C@H]2CCC[C@@H](O)C2)c2c1[C@H](O)C(F)(F)C2)C(F)(F)F [Compound 483] | 250 to 1000 | < 50 |  | 
22 | N#CC1(CCOc2ccc(S(=O)(=O)C(F)(F)F)c3c2CC(F)(F)[C@H]3O)COC1 [Compound 749] | > 1000 | 250 to 1000 |  | 
23 | CS(=O)(=O)c1ccc(Oc2cncc(C#N)c2)c2c1[C@H](O)[C@H](F)C2 [Compound 313] | > 1000 | > 1000 |  | 
24 | O=Cc1c(S(=O)(=O)C(F)(F)F)ccc(Oc2cc(F)cc(Cl)c2)c1Br [Compound 101] | 250 to 1000 | < 50 |  | 
25 | O=S(=O)(c1ccc(-c2cccnc2)c2c1[C@H](O)C(F)(F)C2)C(F)(F)F [Compound 558] | > 1000 | > 1000 |  | 
26 | N#Cc1cncc(Oc2ccc(S(N)(=O)=O)c3c2CC(F)(F)[C@H]3O)c1 [Compound 253] | > 1000 | > 1000 |  | 
27 | COCCOc1ccc(S(=O)(=O)C(F)(F)F)c2c1CC(F)(F)C2O (stereo not drawn) [Compound 595] | 250 to 1000 | 250 to 1000 |  | 

Second part, led by results:

Row | EC50 (786-O-Hif-Luc cells; [2]) [nM] | IC50 [1, 3] [nM] | SMILES | EC50 (786-O-Hif-Luc cells; read-out: Mean Luciferase EC50 (nM)) [nM] | IC50 ([1]; Scintillation Proximity Assay IC50 (nM)) [nM]
28 | 250 to 1000 | 50 to 249 | N#Cc1cc(F)cc(Oc2ccc(S(=O)(=O)C(F)F)c(C#N)c2Cl)c1 [Compound 39] |  | 
29 | 250 to 1000 | 250 to 1000 | Cc1cc(Oc2cc(F)cc(C#N)c2)c2c(c1S(C)(=O)=O)C(O)C(F)(F)C2 (stereo not drawn) [Compound 213] |  | 
30 | > 1000 | 250 to 1000 | O=S(=O)(c1ccc(Oc2c(F)ccc3[nH]ncc23)c2c1C(O)C(F)(F)C2)C(F)(F)F (stereo not drawn) [Compound 244] |  | 
31 | 50 to 249 | < 50 | O=S(=O)(c1ccc(O[C@H]2CCCOC2)c2c1[C@H](O)C(F)(F)C2)C(F)(F)F [Compound 731] |  | 
32 | > 1000 | > 1000 | CS(=O)(=O)c1ccc(O[C@H]2C[C@](C)(C#N)C2)c2c1[C@H](O)C(F)(F)[C@@H]2F [Compound 767] |  | 
33 | > 1000 | < 50 | N#CN=S1(=O)c2ccc(Oc3cc(F)cc(F)c3)c(C(F)F)c2C(O)C1(F)F (stereo not drawn) [Compound 397] |  | 
34 | > 1000 | > 1000 | CCCOc1ccc(I)c2c1C[C@@H](F)[C@H]2O [Compound 683] |  | 
35 | > 1000 | 250 to 1000 | CS(=O)(=O)NCCOc1ccc(S(=O)(=O)C(F)(F)F)c2c1CC(F)(F)C2O (stereo not drawn) [Compound 637] |  | 
36 | > 1000 | < 50 | CS(=O)(=O)c1ccc(O[C@H]2C[C@@](F)(C#N)C2)c2c1[C@H](O)C(F)(F)[C@@H]2F [Compound 739] |  | 
37 | 250 to 1000 | 250 to 1000 | O=S(=O)(c1ccc(Nc2cc(F)cc(F)c2)c2c1[C@H](O)CC2)C(F)(F)F [Compound 531] |  | 
38 | > 1000 | 50 to 249 | CC1(C)CC[C@@H](O)[C@@H](c2ccc(S(=O)(=O)C(F)(F)F)c3c2CC(F)(F)[C@H]3O)C1 [Compound 545] |  | 
39 | 250 to 1000 | 50 to 249 | N#Cc1cccc(-c2ccc(S(=O)(=O)C(F)(F)F)c3c2CC(F)(F)[C@H]3O)c1 [Compound 569] |  | 
40 | 50 to 249 | 50 to 249 | O=S(=O)(c1ccc(Oc2cc(Cl)c[n+]([O-])c2)c2c1[C@H](O)C(F)(F)C2)C(F)(F)F [Compound 260] |  | 
41 | > 1000 | 250 to 1000 | N#Cc1cccc(Oc2ccc(S(=O)(=O)C(F)F)c(C#N)c2Cl)c1 [Compound 40] |  | 
42 | 50 to 249 | 50 to 249 | N#CN=S(=O)(CF)c1ccc(Oc2cc(F)cc(C#N)c2)c2c1[C@H](O)C(F)(F)C2 (stereo partly drawn) [Compound 285] |  | 
43 | 250 to 1000 | 50 to 249 | CC1(O)c2c(ccc(Oc3cc(F)cc(F)c3)c2Br)S(=O)(=O)C1(F)F (stereo not drawn) [Compound 444] |  | 
44 | 50 to 249 | < 50 | COCC(C)Oc1ccc(S(=O)(=O)C(F)(F)F)c2c1CC(F)(F)C2O (stereo not drawn) [Compound 594] |  | 
45 | > 1000 | < 50 | O=S(=O)(c1ccc(OC2CCNCC2)c2c1C(O)C(F)(F)C2)C(F)(F)F (stereo not drawn) [Compound 607] |  | 

Row | EC50 (786-O-Hif-Luc cells; [2]) [nM] | IC50 [1, 3] [nM] | SMILES | EC50 (786-O-Hif-Luc cells; read-out: Mean Luciferase EC50 (nM)) [nM] | IC50 ([1]; Scintillation Proximity Assay IC50 (nM)) [nM]
46 | 250 to 1000 | 250 to 1000 | CC(Oc1ccc(S(=O)(=O)C(F)(F)F)c2c1CC(F)(F)[C@H]2O)C1(C#N)CC1 (stereo partly drawn) [Compound 748] |  | 
47 | > 1000 | 50 to 249 | N#Cc1cc(F)cc(Oc2ccc(S(=O)(=O)C(F)(F)F)c(C#N)c2Br)c1 [Compound 100] |  | 
48 | 50 to 249 | 50 to 249 | O[C@H]1c2c(C(F)(F)F)ccc(OCC(F)F)c2C[C@@H]1F [Compound 697] |  | 
49 | > 1000 | 50 to 249 | COc1cc(F)cc(Oc2ccc3c(c2C#N)[C@@H](O)C(F)(F)S3(=O)=O)c1 [Compound 427] |  | 
50 | > 1000 | 50 to 249 | CC(C)(C#N)COc1ccc(S(=O)(=O)C(F)(F)F)c2c1CCC2O (stereo not drawn) [Compound 609] |  | 
51 | > 1000 | 250 to 1000 | N#Cc1cc(F)cc(Oc2ccc(S(=N)(=O)C(F)(F)F)c3c2CCC3O)c1 (stereo not drawn) [Compound 258] |  | 
52 | > 1000 | > 1000 | CC(C)(C#N)COc1ccc(S(C)(=O)=O)c2c1[C@@H](F)C(F)(F)[C@H]2O [Compound 752] |  | 
53 | < 50 | < 50 | O=S(=O)(c1ccc(Oc2ccc(F)c(Cl)c2)c2c1[C@H](O)C(F)(F)C2)C(F)(F)F [Compound 221] |  | 
54 | 250 to 1000 | < 50 | O=S(=O)(c1ccc(Oc2cccc3[nH]ncc23)c2c1[C@H](O)C(F)(F)C2)C(F)(F)F [Compound 263] |  | 
55 | > 1000 | > 1000 | O=S(=O)(c1ccc(OCc2ccccc2)c2c1[C@H](O)C(F)(F)C2)C(F)F [Compound 780] |  | 
56 | > 1000 | 50 to 249 | O/N=C1/c2c(C(F)(F)F)ccc(OC3CC(F)(F)C3)c2CC1(F)F [Compound 672] |  | 
57 | 50 to 249 | < 50 | O=S1(=O)c2ccc(Oc3ccc(F)c(F)c3)c(C(F)F)c2[C@@H](O)C1(F)F [Compound 436] |  | 
58 | > 1000 | > 1000 | NC1CS(=O)(=O)c2ccc(Oc3cc(F)cc(Cl)c3)c(C(F)F)c21 (stereo not drawn) [Compound 363] |  | 
59 | 50 to 249 | < 50 | O[C@@H]1CCc2c(Oc3cc(F)cc(F)c3)ccc(C(F)(F)F)c21 [Compound 58] |  | 
60 | 250 to 1000 | 50 to 249 | CS(=N)(=O)c1ccc(Oc2cc(F)cc(F)c2)c2c1C(O)C(F)(F)C2 (stereo not drawn) [Compound 192] |  | 
61 | > 1000 | > 1000 | O=S1(=O)c2ccc(Oc3cccc4cn[nH]c34)c(C(F)F)c2C(O)C1(F)F (stereo not drawn) [Compound 441] |  | 
62 | 250 to 1000 | 50 to 249 | Cc1c(Oc2cc(F)cc(C#N)c2)ccc(S(=O)(=O)C(F)(F)F)c1CO [Compound 146] |  | 
63 | > 1000 | > 1000 | N#Cc1cc(F)cc(Oc2ccc(S(=O)(=O)CCO)c3c2CC(F)(F)C3O)c1 (stereo not drawn) [Compound 250] |  | 
